Assay results published in the supplement of paper PMC7840683.
Counter-ions that a name gives are not always drawn.

Tested on: HepaRG
Assay: LDH release cytotoxicity, % of total lysis control; higher = more cytotoxic
Conditions: 48 h
In short: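 Duplicate wells of single-lot HepaRG cells, grown on collagen I-coated 96-well plates, received eight-point half-log series of test chemicals with 100 µM as the top concentration. Exposure lasted 48 h in serum-free induction medium with 0.5% DMSO, while total lysis wells received 0.1% Triton X. Resorufin fluorescence (CytoTox-ONE, Tecan Safire) was used to quantify LDH leaked into 50 µL of spent medium. Values for percent cytotoxicity were normalized to on-plate vehicle and total lysis controls and averaged across the duplicates.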

ClCC(Cl)CCl [1,2,3-Trichloropropane]
Conditions | LDH release cytotoxicity [%]
0.03162 µM | -1.72
0.1 µM | -1.57
0.3162278 µM | -1.6
1 µM | -0.683
3.16228 µM | -0.233
10 µM | -1.91
31.6228 µM | -1.01
100 µM | 0.236

O=C(NC(=O)c1c(F)cccc1F)Nc1cc(Cl)c(OC(F)(F)C(F)F)c(Cl)c1 [Hexaflumuron]
Conditions | LDH release cytotoxicity [%]
0.03162 µM | -0.197
0.1 µM | -1
0.3162278 µM | -1.85
1 µM | -1.29
3.16228 µM | -1.24
10 µM | -0.349
31.6228 µM | -0.129
100 µM | 4.86

O=[N+]([O-])/N=C1\NCCN1Cc1ccc(Cl)nc1 [Imidacloprid]
Conditions | LDH release cytotoxicity [%]
0.03162 µM | -2.56
0.1 µM | -1.08
0.3162278 µM | -1.14
1 µM | -1.66
3.16228 µM | -1.89
10 µM | -0.694
31.6228 µM | -0.538
100 µM | 1.58

c1ccc2c(c1)-c1cccc3cccc-2c13 [Fluoranthene]
Conditions | LDH release cytotoxicity [%]
0.03162 µM | -1.36
0.1 µM | -0.258
0.3162278 µM | -0.857
1 µM | -0.0961
3.16228 µM | -0.593
10 µM | -0.226
31.6228 µM | -0.969
100 µM | -2.77

O=C(O)c1ccccc1-n1cc(C(=O)O)c(=O)c2cc(Nc3c(F)cc(F)cc3Cl)c(Cl)cc21 [AVE9423]
Conditions | LDH release cytotoxicity [%]
0.03162 µM | -1.33
0.1 µM | -1.38
0.3162278 µM | -2.06
1 µM | -2.38
3.16228 µM | -2.31
10 µM | -2.38
31.6228 µM | -1.42
100 µM | -1.52

Cn1c(=O)c2c(ncn2C)n(C)c1=O [Caffeine]
Conditions | LDH release cytotoxicity [%]
0.03162 µM | -1.5
0.1 µM | -0.664
0.3162278 µM | -1.14
1 µM | -0.9619
3.16228 µM | -1.02
10 µM | -0.778
31.6228 µM | -0.135
100 µM | 1.03

CC(COCC(C)OC(=O)c1ccccc1)OC(=O)c1ccccc1 (stereo not given) [Di(propylene glycol) dibenzoate]
Conditions | LDH release cytotoxicity [%]
0.03162 µM | -0.851
0.1 µM | -1.49
0.3162278 µM | -1.08
1 µM | -1.01
3.16228 µM | -1.58
10 µM | -1.58
31.6228 µM | -1.03
100 µM | 0.42

CCCCN(CC)c1c([N+](=O)[O-])cc(C(F)(F)F)cc1[N+](=O)[O-] [Benfluralin]
Conditions | LDH release cytotoxicity [%]
0.031623 µM | -0.0474
0.1 µM | -1.73
0.316228 µM | -1.78
1 µM | -2.54
3.16228 µM | -2.56
10 µM | -1.12
31.6228 µM | -1.14
100 µM | -0.374

O=[N+]([O-])c1ccc(O)cc1 [4-Nitrophenol]
Conditions | LDH release cytotoxicity [%]
0.03162 µM | -0.152
0.1 µM | -1.48
0.3162278 µM | -1.18
1 µM | -1.8
3.16228 µM | -0.936
10 µM | -1.26
31.6228 µM | -0.409
100 µM | -0.082

Cc1c2ccccc2c(C)c2c1ccc1ccccc12 [7,12-Dimethylbenz(a)anthracene]
Conditions | LDH release cytotoxicity [%]
0.03162 µM | -1.46
0.1 µM | -1.68
0.3162278 µM | -1.43
1 µM | -1.27
3.16228 µM | -1.45
10 µM | -1.64
31.6228 µM | 1.86
100 µM | -0.663

CCOc1ccc2c(n1)C(=O)C(C(=O)NCc1ccccc1)C=N2 (stereo not given)
Conditions | LDH release cytotoxicity [%]
0.03162 µM | -1.14
0.1 µM | -1.5
0.3162278 µM | -0.931
1 µM | -1.34
3.16228 µM | -0.884
10 µM | -0.792
31.6228 µM | -1.83
100 µM | -0.163

CCCCCCCCCCCCCCCC [Hexadecane]
Conditions | LDH release cytotoxicity [%]
0.03162 µM | -0.113
0.1 µM | -0.43
0.3162278 µM | -1.34
1 µM | -1.31
3.16228 µM | -0.091
10 µM | -0.203
31.6228 µM | 0.166
100 µM | -0.385

Cn1cc(-c2ccccc2)c(=O)c(-c2cccc(C(F)(F)F)c2)c1 [1-Methyl-3-phenyl-5-(3-(trifluoromethyl)phenyl)-4-pyridone]
Conditions | LDH release cytotoxicity [%]
0.02893 µM | -1.78
0.0915 µM | -1.31
0.289348 µM | -1.94
0.915 µM | -2.56
2.89348 µM | -2.08
9.15 µM | -2.29
28.9348 µM | -1.81
91.5 µM | 20.3

COc1ccc(-n2nc(C(F)F)cc2-c2ccc(S(C)=O)cc2)cc1 (stereo not given) [Difpas-pyrazole]
Conditions | LDH release cytotoxicity [%]
0.03162 µM | -0.159
0.1 µM | -0.696
0.3162278 µM | -0.216
1 µM | -0.962
3.16228 µM | 0.006
10 µM | 0.216
31.6228 µM | 0.847
100 µM | 78.66

CC(=O)OCC(COC(C)=O)OC(C)=O [Triacetin]
Conditions | LDH release cytotoxicity [%]
0.03162 µM | -0.962
0.1 µM | -3.22
0.3162278 µM | -1.81
1 µM | -1.13
3.16228 µM | -1.14
10 µM | -0.506
31.6228 µM | 0.136
100 µM | 0.128

O=C(Nc1ccc2[nH]ccc2c1)c1cc2cc(F)ccc2n1Cc1cccc(F)c1
Conditions | LDH release cytotoxicity [%]
0.02625 µM | -0.0757
0.083 µM | -0.934
0.262469 µM | -1.53
0.83 µM | -0.536
2.62469 µM | -0.9
8.3 µM | -0.744
26.2469 µM | 8.37
83 µM | 93.9

CCC(C)N=O (stereo not given) [2-Butanone oxime]
Conditions | LDH release cytotoxicity [%]
0.02261 µM | 0.0542
0.0715 µM | -0.457
0.2261029 µM | -1.06
0.715 µM | -1.57
2.26103 µM | -1.04
7.15 µM | -1.22
22.6103 µM | -1.08
71.5 µM | 0.052

OB(O)O [Boric acid (H3BO3)]
Conditions | LDH release cytotoxicity [%]
0.03162 µM | -0.989
0.1 µM | -0.753
0.3162278 µM | 0.0737
1 µM | -0.582
3.16228 µM | -0.954
10 µM | -0.232
31.6228 µM | 0.368
100 µM | 0.851

Cc1ccc(N)cc1O [5-Amino-2-methylphenol]
Conditions | LDH release cytotoxicity [%]
0.03162 µM | -0.861
0.1 µM | -1.2
0.3162278 µM | -0.469
1 µM | -1.04
3.16228 µM | -0.613
10 µM | -0.636
31.6228 µM | -0.124
100 µM | 0.121

COP(=O)(OC)C(O)C(Cl)(Cl)Cl (stereo not given) [Trichlorfon]
Conditions | LDH release cytotoxicity [%]
0.03162 µM | 0.0437
0.1 µM | -1.39
0.3162278 µM | -0.758
1 µM | -1.43
3.16228 µM | 19.7
10 µM | 73.1
31.6228 µM | 76.8
100 µM | 76.7

c1ccc(NNc2ccccc2)cc1 [1,2-Diphenylhydrazine]
Conditions | LDH release cytotoxicity [%]
0.03162 µM | -1.61
0.1 µM | -1.5
0.3162278 µM | -1.76
1 µM | -2.09
3.16228 µM | -1.82
10 µM | -1.49
31.6228 µM | -1.72
100 µM | -0.591

CN(C)CCCN(C)CCCN(C)C [2,6,10-Trimethyl-2,6,10-triazaundecane]
Conditions | LDH release cytotoxicity [%]
0.03162 µM | -1.25
0.1 µM | -1.63
0.3162278 µM | -2.17
1 µM | -1.73
3.16228 µM | -1.82
10 µM | -1.78
31.6228 µM | -0.82
100 µM | -0.216

CCCCCCCCCCCCCCCCCC(=O)O [Octadecanoic acid]
Conditions | LDH release cytotoxicity [%]
0.03162 µM | -0.507
0.1 µM | -1.75
0.3162278 µM | -1.54
1 µM | -1.46
3.16228 µM | -1.45
10 µM | -0.538
31.6228 µM | -0.0805
100 µM | 0.581

CCNc1nc(Cl)nc(NCC)n1 [Simazine]
Conditions | LDH release cytotoxicity [%]
0.03162 µM | -0.667
0.1 µM | -1.85
0.3162278 µM | -2.13
1 µM | -2.25
3.16228 µM | -2.26
10 µM | -1.94
31.6228 µM | -0.91
100 µM | -0.579

CN(C)C1C(=O)C(C(N)=O)C(=O)C2(O)C(=O)C3C(=O)c4c(O)cccc4C(C)(O)C3C(O)C12 (stereo not given) [Oxytetracycline hydrochloride]
Conditions | LDH release cytotoxicity [%]
0.03162 µM | -0.636
0.1 µM | -0.707
0.3162278 µM | -1.81
1 µM | -1.93
3.16228 µM | -1.93
10 µM | -1.21
31.6228 µM | -1.75
100 µM | -1.47

CC(=O)NC1(c2cccc(F)c2)CCN(CCC2(c3ccc(Cl)c(Cl)c3)CN(c3ccccc3)C(=O)CO2)CC1 (stereo not given)
Conditions | LDH release cytotoxicity [%]
0.03162 µM | -0.672
0.1 µM | -0.672
0.3162278 µM | -0.643
1 µM | -0.552
3.16228 µM | -0.767
10 µM | -0.38
31.6228 µM | 0.499
100 µM | 3.41

CC(C)(C)CC(C)(C)c1ccc(O)c(-n2nc3ccccc3n2)c1 [Octrizole]
Conditions | LDH release cytotoxicity [%]
0.03162 µM | -2.72
0.1 µM | -2.89
0.3162278 µM | -2.68
1 µM | -3.09
3.16228 µM | -3.1
10 µM | -2.49
31.6228 µM | -1.9
100 µM | -2.37

COC(=O)c1ccccc1N [Methyl 2-aminobenzoate]
Conditions | LDH release cytotoxicity [%]
0.03162 µM | -1.17
0.1 µM | 0.00334
0.3162278 µM | 0.277
1 µM | -0.0267
3.16228 µM | 0.248
10 µM | 0.495
31.6228 µM | 0.0802
100 µM | 1.28

Cc1cc(-c2ccc(N)c(C)c2)ccc1N [3,3'-Dimethylbenzidine]
Conditions | LDH release cytotoxicity [%]
0.03162 µM | -0.774
0.1 µM | -1.43
0.3162278 µM | -1.35
1 µM | -1.27
3.16228 µM | -0.397
10 µM | -0.218
31.6228 µM | 2.22
100 µM | 5.88

CC(C)(C)OOC(=O)c1ccccc1 [tert-Butyl perbenzoate]
Conditions | LDH release cytotoxicity [%]
0.03162 µM | -1.33
0.1 µM | -1.77
0.3162278 µM | -1.063
1 µM | -2.35
3.16228 µM | -1.04
10 µM | -1.63
31.6228 µM | -0.865
100 µM | 0.38
